Assay results taken from PMC3112094, “Pro-apoptotic activity of α-bisabolol in preclinical models of primary human acute leukemia cells” (Journal of Translational Medicine, 2011).

Assays:
[1] = test system: primary acute leukemia cells; assay: cells; format: cell-based, human; conditions: for IC50: Homo sapiens, 24 h
Method: (§1) Cells derived from patients or normal donors were exposed for 24 hours to 20, 40, 80, and 160 μM α-bisabolol dissolved in ethanol (1:8 in order to minimize drug volumes), and when appropriate to 3 μM imatinib mesylate (Novartis, Basel, CH), representative of the in vivo active concentration. All cytotoxicity tests were performed in triplicate.
(§2) A lactate dehydrogenase (LDH) release assay was conducted as follows. Thawed cells were resuspended in RPMI-1640 (Lonza, Basel, CH) supplemented with 10% heat-inactivated fetal bovine serum (FBS, Lonza), 50 U/mL penicillin and 50 μg/mL streptomycin (complete medium, CM), seeded at a density of 2 × 10^6 cell/mL and incubated at 37°C in 5% CO2. After 24 hours, the cells were treated with α-bisabolol (or ethanol as a vehicle control) as specified above. Cytotoxicity was determined using the Cytotoxicity Detection Kit^PLUS according to the manufacturer's recommendations (Roche, Mannheim, DE). LDH leakage was measured as the ratio of treatment-induced LDH to spontaneous LDH release. α-bisabolol and imatinib mesylate data were reported as the percent cytotoxicity for treated compared to untreated cells and plotted as dose-response curves over 24 hours. The half maximal inhibitory concentration (IC50) was determined when appropriate.
To generate a classification based on α-bisabolol sensitivity, samples were grouped using the complete linkage hierarchical clustering algorithm available in the MultiExperiment Viewer (MeV, version 4.3 - http://www.tm4.org/mev/). A heat map for sensitivity was derived using the percentage data for mortality after adding α-bisabolol with respect to spontaneous mortality at the same time.
(§3) Student's t-test for means, chi-squared tests, Mann-Whitney U test and Kruskall-Wallis analysis of variance by ranks were considered significant for p values < 0.05.

[2] = Concentrations and tolerability in healthy mice; format: in vivo; conditions: 1.4 g/Kg α-bisabolol
AML cells = assay: 24-hour LDH release cytotoxicity assay, ex vivo blasts; format: cell-based, human; conditions: for cytotoxicity: 24 hours, mean ± SD
Method: (§4) Viable leukemic cells were purified by conventional methods from freshly heparinized peripheral blood with a circulating blast count ≥30,000/mL, or from full-substituted bone marrow that was frozen in liquid nitrogen at diagnosis. In all cases frozen cell samples contained >95% blasts. Cell viability after thawing was always >90%, as assessed by trypan blue staining.
as §1, §2, §3

primary Ph^-B-ALL cells = assay: as above; format: cell-based, human; conditions: for cytotoxicity: 24 hours
Method: as §4, §1, §2, §3

## CC(C)=CCC[C@](C)(O)[C@@H]1CC=C(C)CC1 [α-bisabolol]
[1]; 65 μM α-bisabolol for 24 hours
  responsiveness of all leukemia cases: eventually responsive
[1]; cluster 1, n 8, 24-hour
  IC50: 14 ± 5 µM
[1]; cluster 2, n 19, 24-hour
  IC50: 45 ± 7 µM
[1]; cluster 3, 15 acute leukemia samples, 24-hour
  IC50: 65 ± 5 µM
[1]; cluster 3, 17: 15 acute leukemias plus CD34^+ and CD33^+my samples, 24-hour
  IC50: 64 ± 5 µM
[2]
  blood parameters of liver and kidney functionality: preserved
  concentration in the brain: exceeded 50 μM
AML cells; Homo sapiens, n 14, 24-hour
  IC50: 54 ± 8 µM
AML cells; n 14, 20 μM α-bisabolol
  cytotoxicity: 10 ± 9%
AML cells; n 14, 40 μM α-bisabolol
  cytotoxicity: 32 ± 21%
AML cells; n 14, 80 μM α-bisabolol
  cytotoxicity: 72 ± 11%
AML cells; n 14, 160 μM α-bisabolol
  cytotoxicity: 96 ± 4%
Primary Ph^-B-ALL cells; Homo sapiens, n 14, 24-hour
  IC50: 33 ± 15 µM
Primary Ph^-B-ALL cells; n 14, 20 μM α-bisabolol, mean ± SD
  cytotoxicity: 37 ± 36%
Primary Ph^-B-ALL cells; n 14, 40 μM α-bisabolol, mean ± SD
  cytotoxicity: 55 ± 37%
Primary Ph^-B-ALL cells; n 14, 80 μM α-bisabolol, mean ± SD
  cytotoxicity: 87 ± 12%
Primary Ph^-B-ALL cells; n 14, 160 μM α-bisabolol
  cytotoxicity: 100%
